Assay results reported in BindingDB's records for doi:10.1016/s0960-894x(03)00205-1 (Abbott Laboratories, 2003).

experiment: Potassium channel opening activity in vitro using LtK cells transfected with Kir6.2/SUR2B exon 17

| SMILES | EC50 [nM] |
| --- | --- |
| O=C(Nc1c(C(O)(C(F)(F)F)C(F)(F)F)ccc2ccccc12)c1ccccc1 [N-[2-(2,2,2-Trifluoro-1-hydroxy-1-trifluoromethyl-ethyl)-naphthalen-1-yl]-benzamide] | 44 |
| O=C(Nc1c(C(O)(C(F)(F)F)C(F)(F)F)ccc2ccccc12)c1ccc(F)cc1 [4-Fluoro-N-[2-(2,2,2-trifluoro-1-hydroxy-1-trifluoromethyl-ethyl)-naphthalen-1-yl]-benzamide] | 70 |
| CCCC(C)C(=O)Nc1c(C(O)(C(F)(F)F)C(F)(F)F)ccc2ccccc12 (centres undefined) [2-Methyl-pentanoic acid [2-(2,2,2-trifluoro-1-hydroxy-1-trifluoromethyl-ethyl)-naphthalen-1-yl]-amide] | > 10000 |
| O=C(Nc1c(C(O)(C(F)(F)F)C(F)(F)F)ccc2ccccc12)c1ccc(OC(F)(F)F)cc1 [N-[2-(2,2,2-Trifluoro-1-hydroxy-1-trifluoromethyl-ethyl)-naphthalen-1-yl]-4-trifluoromethoxy-benzamide] | > 10000 |
| O=C(Nc1c(C(O)(C(F)(F)F)C(F)(F)F)ccc2ccccc12)c1cccc(Cl)c1 [3-Chloro-N-[2-(2,2,2-trifluoro-1-hydroxy-1-trifluoromethyl-ethyl)-naphthalen-1-yl]-benzamide] | 98 |
| O=C(Nc1c(C(O)(C(F)(F)F)C(F)(F)F)ccc2ccccc12)c1cccnc1 [N-[2-(2,2,2-Trifluoro-1-hydroxy-1-trifluoromethyl-ethyl)-naphthalen-1-yl]-nicotinamide] | 60 |
| CC(=O)Nc1c(C(O)(C(F)(F)F)C(F)(F)F)cc(Br)c2ccccc12 [N-[4-Bromo-2-(2,2,2-trifluoro-1-hydroxy-1-trifluoromethyl-ethyl)-naphthalen-1-yl]-acetamide] | 5310 |
| O=C(Nc1c(C(O)(C(F)(F)F)C(F)(F)F)ccc2ccccc12)c1cc(Cl)cc(Cl)c1 [3,5-Dichloro-N-[2-(2,2,2-trifluoro-1-hydroxy-1-trifluoromethyl-ethyl)-naphthalen-1-yl]-benzamide] | 306 |
| CC(=O)Nc1c(C(O)(C(F)(F)F)C(F)(F)F)ccc2c(O)cccc12 [N-[5-Hydroxy-2-(2,2,2-trifluoro-1-hydroxy-1-trifluoromethyl-ethyl)-naphthalen-1-yl]-acetamide] | 137 |
| O=C(Nc1c(C(O)(C(F)(F)F)C(F)(F)F)ccc2ccccc12)c1cccc(Br)c1 [3-Bromo-N-[2-(2,2,2-trifluoro-1-hydroxy-1-trifluoromethyl-ethyl)-naphthalen-1-yl]-benzamide] | 80 |
| O=C(Nc1c(C(O)(C(F)(F)F)C(F)(F)F)ccc2ccccc12)c1ccc(I)cc1 [4-Iodo-N-[2-(2,2,2-trifluoro-1-hydroxy-1-trifluoromethyl-ethyl)-naphthalen-1-yl]-benzamide] | 154 |
| O=C(Nc1c(C(O)(C(F)(F)F)C(F)(F)F)ccc2ccccc12)c1cccc([N+](=O)[O-])c1 [3-Nitro-N-[2-(2,2,2-trifluoro-1-hydroxy-1-trifluoromethyl-ethyl)-naphthalen-1-yl]-benzamide] | 117 |
| O=C(CCc1ccccc1)Nc1c(C(O)(C(F)(F)F)C(F)(F)F)ccc2ccccc12 [3-Phenyl-N-[2-(2,2,2-trifluoro-1-hydroxy-1-trifluoromethyl-ethyl)-naphthalen-1-yl]-propionamide] | 1750 |
| CCC(C)C(=O)Nc1c(C(O)(C(F)(F)F)C(F)(F)F)ccc2ccccc12 (centres undefined) [2-Methyl-N-[2-(2,2,2-trifluoro-1-hydroxy-1-trifluoromethyl-ethyl)-naphthalen-1-yl]-butyramide] | 177000 |
| O=C(Nc1c(C(O)(C(F)(F)F)C(F)(F)F)ccc2ccccc12)C1CCCC1 [Cyclopentanecarboxylic acid [2-(2,2,2-trifluoro-1-hydroxy-1-trifluoromethyl-ethyl)-naphthalen-1-yl]-amide] | 495 |

Further lines, results first:

| EC50 [nM] | SMILES |
| --- | --- |
| 44 | O=C(Nc1c(C(O)(C(F)(F)F)C(F)(F)F)ccc2ccccc12)c1cccc(F)c1 [3-Fluoro-N-[2-(2,2,2-trifluoro-1-hydroxy-1-trifluoromethyl-ethyl)-naphthalen-1-yl]-benzamide] |
| 15 | CCC(=O)Nc1c(C(O)(C(F)(F)F)C(F)(F)F)ccc2ccccc12 [N-[2-(2,2,2-Trifluoro-1-hydroxy-1-trifluoromethyl-ethyl)-naphthalen-1-yl]-propionamide] |
| 185 | COc1cccc(C(=O)Nc2c(C(O)(C(F)(F)F)C(F)(F)F)ccc3ccccc23)c1 [3-Methoxy-N-[2-(2,2,2-trifluoro-1-hydroxy-1-trifluoromethyl-ethyl)-naphthalen-1-yl]-benzamide] |
| 317 | O=C(Nc1c(C(O)(C(F)(F)F)C(F)(F)F)ccc2ccccc12)c1cnc2ccccc2n1 [Quinoxaline-2-carboxylic acid [2-(2,2,2-trifluoro-1-hydroxy-1-trifluoromethyl-ethyl)-naphthalen-1-yl]-amide] |
| 4340 | CCC(CC)C(=O)Nc1c(C(O)(C(F)(F)F)C(F)(F)F)ccc2ccccc12 [2-Ethyl-N-[2-(2,2,2-trifluoro-1-hydroxy-1-trifluoromethyl-ethyl)-naphthalen-1-yl]-butyramide] |
| 76 | Cc1ccc(C(=O)Nc2c(C(O)(C(F)(F)F)C(F)(F)F)ccc3ccccc23)cc1 [4-Methyl-N-[2-(2,2,2-trifluoro-1-hydroxy-1-trifluoromethyl-ethyl)-naphthalen-1-yl]-benzamide] |
| 194 | O=C(Nc1c(C(O)(C(F)(F)F)C(F)(F)F)ccc2ccccc12)c1ccc(Cl)c(Cl)c1 [3,4-Dichloro-N-[2-(2,2,2-trifluoro-1-hydroxy-1-trifluoromethyl-ethyl)-naphthalen-1-yl]-benzamide] |
| 2220 | CC(=O)Nc1c(C(O)(C(F)(F)F)C(F)(F)F)ccc2cc(O)ccc12 [N-[6-Hydroxy-2-(2,2,2-trifluoro-1-hydroxy-1-trifluoromethyl-ethyl)-naphthalen-1-yl]-acetamide] |
| 45 | O=C(Nc1c(C(O)(C(F)(F)F)C(F)(F)F)ccc2ccccc12)C1CCC1 [Cyclobutanecarboxylic acid [2-(2,2,2-trifluoro-1-hydroxy-1-trifluoromethyl-ethyl)-naphthalen-1-yl]-amide] |
| 84 | O=C(Nc1c(C(O)(C(F)(F)F)C(F)(F)F)ccc2ccccc12)c1cccc(C(F)(F)F)c1 [N-[2-(2,2,2-Trifluoro-1-hydroxy-1-trifluoromethyl-ethyl)-naphthalen-1-yl]-3-trifluoromethyl-benzamide] |
| 47 | O=C(Nc1c(C(O)(C(F)(F)F)C(F)(F)F)ccc2ccccc12)c1ccc(Br)cc1 [4-Bromo-N-[2-(2,2,2-trifluoro-1-hydroxy-1-trifluoromethyl-ethyl)-naphthalen-1-yl]-benzamide] |
| 23 | Cc1cccc(C(=O)Nc2c(C(O)(C(F)(F)F)C(F)(F)F)ccc3ccccc23)c1 [3-Methyl-N-[2-(2,2,2-trifluoro-1-hydroxy-1-trifluoromethyl-ethyl)-naphthalen-1-yl]-benzamide] |
| > 10000 | O=C(Nc1c(C(O)(C(F)(F)F)C(F)(F)F)ccc2ccccc12)c1cc2ccccc2s1 [Benzo[b]thiophene-2-carboxylic acid [2-(2,2,2-trifluoro-1-hydroxy-1-trifluoromethyl-ethyl)-naphthalen-1-yl]-amide] |
| 49 | CC(C)CCC(=O)Nc1c(C(O)(C(F)(F)F)C(F)(F)F)ccc2ccccc12 [4-Methyl-pentanoic acid [2-(2,2,2-trifluoro-1-hydroxy-1-trifluoromethyl-ethyl)-naphthalen-1-yl]-amide] |
